Experimental data published in PubChem BioAssay (NCI).
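48-hour exposure; five concentrations; linearly interpolated endpoints. TGI denotes the concentration required for complete inhibition of growth.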

Experiments:
Assay in all cases: NCI anticancer screen, dose series, 48 h
[1] = test system: SR leukemia
[2] = test system: SF-539 CNS
[3] = test system: M14 melanoma
[4] = test system: IGROV1 ovarian
[5] = test system: BT-549 breast
[6] = test system: SK-MEL-28 melanoma
[7] = test system: MOLT-4 leukemia
[8] = test system: EKVX NSCLC
[9] = test system: MDA-MB-231 breast
[10] = test system: HCT-116 colon
[11] = test system: RXF 393 renal
[12] = test system: RPMI-8226 leukemia
[13] = test system: HOP-62 NSCLC
[14] = test system: 786-0 renal
[15] = test system: NCI-H23 lung
[16] = test system: SW-620 colon
[17] = test system: SK-MEL-2 melanoma
[18] = test system: HS 578T breast
[19] = test system: HCT-15 colon
[20] = test system: NCI/ADR-RES ovarian
[21] = test system: LOX IMVI melanoma
[22] = test system: HOP-92 NSCLC
[23] = test system: K-562 leukemia
[24] = test system: SF-295 CNS
[25] = test system: SK-OV-3 ovarian
[26] = test system: NCI-H226 lung
[27] = test system: NCI-H522 lung
[28] = test system: UO-31 renal
[29] = test system: UACC-62 melanoma
[30] = test system: ACHN renal
[31] = test system: HCC-2998 colon
[32] = test system: OVCAR-5 ovarian
[33] = test system: MALME-3M melanoma
[34] = test system: OVCAR-3 ovarian
[35] = test system: SF-268 CNS
[36] = test system: HT29 colon
[37] = test system: KM12 colon
[38] = test system: MDA-MB-435
[39] = test system: OVCAR-4 ovarian
[40] = test system: CAKI-1 renal
[41] = test system: UACC-257 melanoma
[42] = test system: OVCAR-8 ovarian
[43] = test system: HL-60(TB) leukemia
[44] = test system: SK-MEL-5 melanoma
[45] = test system: A549 NSCLC
[46] = test system: MDA-N
[47] = test system: DU-145 prostate
[48] = test system: SNB-19 CNS
[49] = test system: NCI-H460 lung
[50] = test system: TK-10 renal
[51] = test system: PC-3 prostate
[52] = test system: MCF7 breast
[53] = test system: U251 CNS
[54] = test system: COLO 205 colon
[55] = test system: CCRF-CEM leukemia
[56] = test system: SN12C renal
[57] = test system: A498 renal
[58] = test system: SNB-75 CNS
[59] = test system: T-47D breast

CC(CCOc1c2ccoc2cc2oc(=O)ccc12)C1=CC(=O)C(C)(C)O1 (stereo not given)
TGI [1]: > 100 µM | TGI [2]: > 100 µM | TGI [3]: > 100 µM | TGI [4]: > 100 µM | TGI [5]: > 100 µM | TGI [6]: > 100 µM | TGI [7]: > 100 µM | TGI [8]: > 100 µM | TGI [9]: > 100 µM | TGI [10]: > 100 µM | TGI [11]: > 100 µM | TGI [12]: > 100 µM | TGI [13]: > 100 µM | TGI [14]: > 100 µM | TGI [15]: > 100 µM | TGI [16]: > 100 µM | TGI [17]: > 100 µM | TGI [18]: > 100 µM | TGI [19]: > 100 µM | TGI [20]: > 100 µM | TGI [21]: > 100 µM | TGI [22]: > 100 µM | TGI [23]: > 100 µM | TGI [24]: > 100 µM | TGI [25]: > 100 µM | TGI [26]: > 100 µM | TGI [27]: 71.3 µM | TGI [28]: > 100 µM | TGI [29]: > 100 µM | TGI [30]: > 100 µM | TGI [31]: > 100 µM | TGI [32]: > 100 µM | TGI [33]: > 100 µM | TGI [34]: > 100 µM | TGI [35]: > 100 µM | TGI [36]: > 100 µM | TGI [37]: > 100 µM | TGI [38]: > 100 µM | TGI [39]: > 100 µM | TGI [40]: > 100 µM | TGI [41]: > 100 µM | TGI [42]: > 100 µM | TGI [43]: > 100 µM | TGI [44]: > 100 µM | TGI [45]: > 100 µM | TGI [46]: > 100 µM | TGI [47]: > 100 µM | TGI [48]: > 100 µM | TGI [49]: > 100 µM | TGI [50]: > 100 µM | TGI [51]: > 100 µM | TGI [52]: > 100 µM | TGI [53]: > 100 µM | TGI [54]: > 100 µM | TGI [55]: > 100 µM | TGI [56]: > 100 µM

CC1=NCC[N+]1(CCc1ccccc1)Cc1ccccc1 (stereo not given)
TGI [1]: > 100 µM | TGI [3]: > 100 µM | TGI [4]: > 100 µM | TGI [5]: > 100 µM | TGI [6]: > 100 µM | TGI [8]: > 100 µM | TGI [9]: > 100 µM | TGI [10]: > 100 µM | TGI [11]: > 100 µM | TGI [12]: 69.8 µM | TGI [13]: > 100 µM | TGI [14]: > 100 µM | TGI [15]: > 100 µM | TGI [16]: > 100 µM | TGI [17]: > 100 µM | TGI [18]: > 100 µM | TGI [19]: > 100 µM | TGI [57]: > 100 µM | TGI [20]: > 100 µM | TGI [21]: > 100 µM | TGI [22]: 49.8 µM | TGI [23]: 31 µM | TGI [24]: > 100 µM | TGI [25]: > 100 µM | TGI [26]: > 100 µM | TGI [27]: 72.3 µM | TGI [58]: > 100 µM | TGI [28]: > 100 µM | TGI [29]: > 100 µM | TGI [30]: > 100 µM | TGI [31]: > 100 µM | TGI [32]: > 100 µM | TGI [33]: > 100 µM | TGI [34]: 91 µM | TGI [35]: > 100 µM | TGI [36]: > 100 µM | TGI [37]: > 100 µM | TGI [39]: > 100 µM | TGI [41]: 91.7 µM | TGI [42]: > 100 µM | TGI [43]: 68.7 µM | TGI [44]: > 100 µM | TGI [45]: > 100 µM | TGI [46]: > 100 µM | TGI [47]: > 100 µM | TGI [48]: > 100 µM | TGI [49]: > 100 µM | TGI [50]: > 100 µM | TGI [52]: > 100 µM | TGI [59]: > 100 µM | TGI [53]: > 100 µM | TGI [54]: 21.5 µM | TGI [55]: > 100 µM | TGI [56]: > 100 µM
